The text below walks through data of patent publication US8728808B2, “Multiple inducible gene regulation system” (Intrexon Corporation, priority 2000, dated 2014).

The subject of assay [1] is LexACfEcR-CDEF/VP16MmRXR-LmUSP-EFchimera. As to the kind of experiment: Dual switch reporter assay in NIH3T3 cells, luciferase under 8opLexARE. In kind it is cell-based, Choristoneura fumiferana. The note with it: mouse NIH3T3 cells, 0.02, 0.1, 0.5, or 2.5 μM ligand, 48 hours, FIG. 1. An excerpt:
(§1) A polynucleotide encoding the C, D, E, and F domains from fruit fly Drosophila melanogaster EcR (“DmEcR-CDEF”; SEQ ID NO: 1) was fused to a polynucleotide encoding a GAL4 DNA binding domain (“Gal4DNABD” or “Gal4 DBD”; SEQ ID NO: 2) and placed under the control of a cytomegalovirus (CMV) promoter/enhancer (SEQ ID NO: 3). A polynucleotide encoding the C, D, E, and F domains from spruce budworm Choristoneura fumiferana EcR (“CfEcR-CDEF”; SEQ ID NO: 4) was fused to a polynucleotide encoding a LexA DNA binding domain (“LexADNABD” or “LexADBD”; SEQ ID NO: 5) and placed under the control of a cytomegalovirus (CMV) promoter/enhancer (SEQ ID NO: 3). […]
(§2) DNAs corresponding to the dual switch constructs outlined in Examples 1.1 and 1.2 were transfected into mouse NIH3T3 cells (ATCC; Example 1.1) or CHO cells (ATCC; Example 1.2) as follows. […] One μg of reporter construct and 0.25 μg of each receptor construct of the receptor pair to be analyzed were added to the transfection mix. […]
(§3) Cells were harvested 48 hours after adding ligands and reporter activities were quantified using the Dual-luciferase™ reporter assay system from Promega Corporation. […] Luciferase activity was measured using Dual-luciferase™ reporter assay system from Promega Corporation following the manufacturer's instructions. […]

Assay [2] relates to GAL4NcEcR-CDE/VP16MmRXRα-EF. Description: Transactivation of pFRLuc reporter in CHO cells through NcEcR. In kind it is cell-based, Nephotetix cincticeps. As to conditions: hamster CHO cells, 0.1, 1, 5, or 10 μM ligand, 48 hours, FIG. 2. The procedure: (§4) This construct was prepared as follows. A polynucleotide encoding the D, E, and F domains from spruce budworm Choristoneura fumiferana EcR (“CfEcR-DEF”; SEQ ID NO: 14) was fused to a polynucleotide encoding a GAL4DNA binding domain (“GAL4 DBD”; SEQ ID NO: 2) and placed under the control of a cytomegalovirus (CMV) promoter/enhancer (SEQ ID NO: 3). A polynucleotide encoding the C, D and E domains from green leafhopper Nephotelix cincticeps ecdysone receptor (“NcEcR-CDE”; SEQ ID NO: 15) was fused to a polynucleotide encoding a GAL4DNA binding domain (“GAL4 DBD”; SEQ ID NO: 2) and placed under the control of a cytomegalovirus (CMV) promoter/enhancer (SEQ ID NO: 3). […]
as §2, §3

For assay [3], the system named is GAL4CfEcR-DEF/VP16MmRXRα-EF. Description: Transactivation of pFRLuc reporter in CHO cells through CfEcR. The assay is classed as cell-based, Choristoneura fumiferana. The note with it: hamster CHO cells, 0.1, 1, 5, or 10 μM ligand, 48 hours, FIG. 2. On the procedure: as §4, §2, §3
For assay [4], the target named is T1, GAL4DmEcR-CDEF/VP16MmRXR-LmUSP-EFchimera (Drosophila melanogaster, UniProt P34021).
T1 construct: C, D, E, and F domains from fruit fly Drosophila melanogaster EcR (“DmEcR-CDEF”); expressed in transfected cells; host or cells: mouse NIH3T3 cells
Description: Dual switch reporter assay in NIH3T3 cells, SEAP under 6XGAL4RE. The note with it: mouse NIH3T3 cells, 0.02, 0.1, 0.5, or 2.5 μM ligand, 48 hours, FIG. 1. In kind it is cell-based.
From the text: as §1, §2, §3

The structures appear in SMILES notation.

T1 sequence (P34021 other isoform, or with tags, fused parts or gaps): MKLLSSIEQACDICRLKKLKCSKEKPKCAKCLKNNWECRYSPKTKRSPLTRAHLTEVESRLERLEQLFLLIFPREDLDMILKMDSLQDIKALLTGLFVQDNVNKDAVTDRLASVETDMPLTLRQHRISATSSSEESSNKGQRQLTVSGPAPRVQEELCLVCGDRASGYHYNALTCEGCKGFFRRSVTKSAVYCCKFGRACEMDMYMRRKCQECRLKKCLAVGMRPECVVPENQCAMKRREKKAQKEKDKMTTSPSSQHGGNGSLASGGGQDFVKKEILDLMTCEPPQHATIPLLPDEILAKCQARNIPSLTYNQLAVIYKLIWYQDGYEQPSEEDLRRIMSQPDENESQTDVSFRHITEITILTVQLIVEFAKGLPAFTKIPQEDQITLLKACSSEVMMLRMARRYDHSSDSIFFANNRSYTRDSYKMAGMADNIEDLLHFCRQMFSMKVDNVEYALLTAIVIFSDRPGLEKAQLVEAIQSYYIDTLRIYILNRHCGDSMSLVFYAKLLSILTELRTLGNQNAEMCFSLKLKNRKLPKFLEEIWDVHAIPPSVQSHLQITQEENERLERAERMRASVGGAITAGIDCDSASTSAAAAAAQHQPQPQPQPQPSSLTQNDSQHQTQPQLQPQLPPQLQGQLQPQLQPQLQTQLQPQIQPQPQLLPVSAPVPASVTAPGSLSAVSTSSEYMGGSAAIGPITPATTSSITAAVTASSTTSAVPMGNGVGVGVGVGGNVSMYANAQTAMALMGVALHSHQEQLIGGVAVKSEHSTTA

Consider `CCc1c(OC)cccc1C(=O)NN(C(=O)c1cc(C)cc(C)c1)C(C)(C)C` [GS™-E, N-(2-ethyl-3-methoxybenzoyl)-N′-(3,5-dimethylbenzoyl)-N′-tert-butylhydrazine], for which the “induction of luciferase reporter activity (LexACfEcR-CDEF switch)” value in assay [1] is reported as “luciferase activity was induced”. Also, the “induction of luciferase reporter activity regulated by NcEcR-CDE” value in assay [2] is given as “does not induce reporter gene expression”. In assay [3], the “induction of luciferase reporter activity regulated by CfEcR-DEF” value was “luciferase activity regulated by CfEcR-DEF was induced”. For the same compound, the “induction of SEAP reporter activity (GAL4DmEcR-CDEF switch)” value in assay [4] was “only luciferase activity was induced”.
For `CC(C)CC[C@@H](O)[C@](C)(O)[C@H]1CC[C@@]2(O)C3=CC(=O)[C@@H]4C[C@@H](O)[C@@H](O)C[C@]4(C)[C@H]3CC[C@]12C` [PonA, ponasterone A], the “induction of luciferase reporter activity (LexACfEcR-CDEF switch)” value in assay [1] is listed as “only SEAP reporter activity was induced”. The “induction of luciferase reporter activity regulated by NcEcR-CDE” value in assay [2] is recorded as “luciferase reporter activity regulated by NcEcR-DE was induced”. Further, in assay [3], the “induction of luciferase reporter activity regulated by CfEcR-DEF” value is reported as “did not induce reporter gene expression”. Moreover, in assay [4], the “induction of SEAP reporter activity (GAL4DmEcR-CDEF switch)” value is “SEAP reporter activity was induced”.
